In US4731470A, “[(5,6-dichloro-3-oxo-2,9a-alkano-2,3,9,9a-tetrahydro-1H-fluoren-7-yl)oxy] alkanoic acids and alkanimidamides” (Merck & Co., Inc., priority 1986, dated 1988):

Assays:
[1] = tested on: cat cerebrocortical tissue slices; experiment: In vitro cat cerebrocortical tissue slice assay (HCO3^- -stimulated tissue swelling); assay type: cell-based; settings: Felis catus, read-out: percentage inhibition of tissue swelling (% Inhib.)
Method: Using the in vitro cat cerebrocortical tissue slice assay, described in Example 1, compounds of the present invention can be tested for activity. This test provides the principal in vitro evaluation and consists of a determination of concentration vs. response curve. The addition of HCO3^- to isotonic, K^+ -rich saline-glucose incubation media is known to specifically stimulate the transport of Cl^- coupled with Na^+ and an osmotic equivalent of water in incubating slices of mammalian cerebral cortex. […] After addition of drug to the incubation media, detailed drug concentration-response curves are then obtained. The data are expressed as percent HCO3^- -stimulated swelling vs. drug concentration, from which the concentration of drug providing 50% inhibition of HCO3^- -stimulated swelling (I50 in molarity) is interpolated.
Adult cats of 2-3 kg body weight are employed in tissue slice studies. Prior to sacrifice, the animals are anesthetized with ketamine hydrochloride (Ketaset), 10 mg/kg intramuscularly. Eight (three control, five experimental) pial surface cerebrocortical tissue slices (0.5-mm thick; approximately 150 mg initial fresh weight) are cut successively with a calibrated Stadie-Riggs fresh tissue microtome without moistening and weighed successively on a torsion balance. During the slice preparation all operations except weighing are confined to a humid chamber. Each slice is rapidly placed in an individual Warburg flask containing 2 ml of incubation medium at room temperature. The basic composition of the incubation media, in millimoles per liter, is as follows: glucose, 10; CaCl2, 1.3; MgSO4, 1.2; KHSO4, 1.2; Hepes (N-2-hydroxyethylpiperazine-N'-2-ethanesulfonic acid, titrated with NaOH to pH 7.4), 20. Except when adding HCO3^-, the osmolarity of the media is maintained isosmotic (approximately 285 mOsm/L) by reciprocal changes of Na^+ or K^+ to achieve a concentration of K^+ of 27 mM. The basic medium was saturated with oxygen by bubbling pure oxygen through the solution for 30 minutes before use. […]
Following the 60-minute incubation period, tissue slices are separated from incubation medium by filtration, reweighed, and homogenized in 1N HClO4 (10% w/v) for electrolyte analysis. […] Control slice swelling is expressed as microliters per gram initial preswelling fresh weight. The effectiveness of an inhibitor at a given concentration is measured by the amount of HCO3^- -stimulated swelling that occurred in its presence, computed as a percent of the maximum possible. Tissue and media Na^+ and K^+ levels are determined by emission flame photometry with Li^+ internal standard; Cl^- levels are determined by amperometric titration. Tissue viability during incubation is monitored by manometry.

astroglial edema = settings: cited from earlier work
[2] = tested on: clinical cases of head injury; settings: cited from earlier work
[3] = tested on: animals receiving experimental in vivo head injury; settings: cited from earlier work

## O=C(O)COc1cc2c(c(Cl)c1Cl)C1=CC(=O)C3CCCC1(C2)C3 (racemic) [Example 2, [(5,6-Dichloro-3-oxo-2,9a-propano-2,3,9,9a-tetrahydro-1H-fluoren-7-yl)oxy]acetic acid]
[1]; conc. 10^-6 M
  inhibition at 1 µM: 81%
[1]; conc. 10^-7 M
  inhibition at 0.1 µM: 54%
[1]; conc. 10^-8 M
  inhibition at 0.01 µM: 29%
[1]; conc. 10^-9 M
  inhibition at 0.001 µM: 10%

## C=C(CC)C(=O)c1ccc(OCC(=O)O)c(Cl)c1Cl [ethacrynic acid]
Astroglial edema
  activity in in vitro assays: exhibited activity
[2]
  reducing mortality in clinical cases of head injury: effective in reducing mortality
[3]
  activity in in vivo assays: exhibited activity
